The text below walks through data of patent publication US20250120946A1, “USE OF PYRROLE COMPOUND IN TREATMENT OF TUMORS” (NANJING SHIJIANG MEDICINE TECHNOLOGY CO., LTD, priority 2021, published 2025).

The subject of assay [1] is NCI-H82 (human small cell lung cancer cell). In words: Cell viability, Promega CellTiter-Glo kit (intracellular ATP), NCI-H82. Type of assay: cell-based. As to conditions: sensitive group, 3-4 days of culture, n=3, read-out: IC50 (50% inhibiting concentration), inhibitory effect on cell line. How it is done:
(§1) In the experiment, the IC50 value of sunitinib or sunitinib malate on various tumor cell lines was determined.

For assay [2], the system named is G-401 (human renal carcinoma Wilms cell). Kind of assay: Cell viability, Promega CellTiter-Glo kit (intracellular ATP), G-401. It counts as cell-based. As to conditions: sensitive group, 3-4 days of culture, n=3, read-out: IC50 (50% inhibiting concentration), inhibitory effect on cell line. As for the experimental part: as §1
(§2) After 3-4 days of culture, the relevant IC50 (50% inhibiting concentration) was measured (n=3).
For orientation: Cellular ATP, detected with luciferase, serves as a proxy for viable cell number.

The subject of assay [3] is SW48 (human colon adenocarcinoma cell). In words: Cell viability, Promega CellTiter-Glo kit (intracellular ATP), SW48. It counts as cell-based. As to conditions: sensitive group, 3-4 days of culture, n=3, read-out: IC50 (50% inhibiting concentration), inhibitory effect on cell line. As for the experimental part: as §1, §2
In assay [4] the test system is WSU-DLCL2 (human diffuse large B-cell lymphoma). In words: Cell viability, Promega CellTiter-Glo kit (intracellular ATP), WSU-DLCL2. It counts as cell-based. Particulars: sensitive group, 3-4 days of culture, n=3, read-out: IC50 (50% inhibiting concentration), inhibitory effect on cell line. As for the experimental part:
as §1, §2

The subject of assay [5] is CFPAC-1 (human pancreatic cancer cell). In words: Cell viability, Promega CellTiter-Glo kit (intracellular ATP), CFPAC-1. It counts as cell-based. As to conditions: insensitive group, 3-4 days of culture, n=3, read-out: IC50 (50% inhibiting concentration), inhibitory effect on cell line. How it is done:
as §1, §2

Assay [6] relates to 786-O (clear cell renal cell adenocarcinoma cell). Kind of assay: Cell viability, Promega CellTiter-Glo kit (intracellular ATP), 786-O. Type of assay: cell-based, human. Particulars: insensitive group, 3-4 days of culture, n=3, read-out: IC50 (50% inhibiting concentration), inhibitory effect on cell line. How it is done:
as §1, §2

In assay [7] the test system is GB-1 (human glioblastoma cell). Kind of assay: Cell viability, Promega CellTiter-Glo kit (intracellular ATP), GB-1. It counts as cell-based. Particulars: insensitive group, 3-4 days of culture, n=3, read-out: IC50 (50% inhibiting concentration), inhibitory effect on cell line. How it is done: as §1, §2
The test system of assay [8] is SF126 (human glioblastoma multiforme cell). In words: Cell viability, Promega CellTiter-Glo kit (intracellular ATP), SF126. Type of assay: cell-based. As to conditions: insensitive group, 3-4 days of culture, n=3, read-out: IC50 (50% inhibiting concentration), inhibitory effect on cell line. As for the experimental part: as §1, §2
The test system of assay [9] is control NCI-H82 cell (NCI-H82 (Con)). Kind of assay: Cell viability, Promega CellTiter-Glo kit, control NCI-H82 cell. Type of assay: cell-based, human. As to conditions: n=3. An excerpt: (§3) The NNMT protein-overexpressing NCI-H82 cell (NCI-H82 (ov-NNMT)) was obtained by inserting the NNMT gene into NCI-H82 cell using a viral vector. The control NCI-H82 cell (NCI-H82 (Con)) was obtained by transfecting NCI-H82 cell with empty virus vector without carrying NNMT gene.

The test system of assay [10] is NNMT protein-overexpressing NCI-H82 cell (NCI-H82 (ov-NNMT)). Kind of assay: Cell viability, Promega CellTiter-Glo kit, NNMT protein-overexpressing NCI-H82 cell. Type of assay: cell-based, human. Particulars: n=3.
Text: as §3

Assay [11] concerns MDA-MB-453 (breast cancer cell). In words: Cell viability, Promega CellTiter-Glo kit (intracellular ATP), MDA-MB-453. Particulars: sensitive group, 3-4 days of culture, n=3.

The structures appear in SMILES notation. Where two headings read alike, the source gives them in different places.

On to `CCN(CC)CCNC(=O)c1c(C)[nH]c(/C=C2\C(=O)Nc3ccc(F)cc32)c1C` [Sunitinib malate, sunitinib malate], for which the IC50 in assay [1] (NCI-H82) was 1.29 µM; in assay [2] (G-401), 2.5 µM; in [3] (SW48), 1.47 µM; in assay [4] (WSU-DLCL2), 1.11 µM; in assay [5] (CFPAC-1), 16.8 µM; in [6] (786-O), 17.8 µM. The IC50 in assay [7] was 12.1 µM; in assay [8] (SF126), 12.4 µM; in assay [9] (NCI-H82 transfected with empty virus vector without NNMT gene), 1.21 µM; in assay [10] (NCI-H82 with NNMT gene inserted via viral vector (NNMT protein overexpressed)), 3.31 µM; in assay [11] (read-out: IC50 (50% inhibiting concentration), inhibitory effect on cell line, MDA-MB-453), 2.33 µM.

Turning to `CCN(CC)CCNC(=O)c1c(C)[nH]c(/C=C2\C(=O)Nc3ccc(F)cc32)c1C` [Sunitinib, sunitinib], the IC50 was 1.3 µM in [1] (Homo sapiens, NCI-H82, NCI-H82); 2.91 µM in assay [2] (Homo sapiens, G-401, G-401); 1.15 µM in assay [3] (Homo sapiens, SW48, SW48); 1.34 µM in [4] (Homo sapiens, WSUDLCL2, WSU-DLCL2); 19.6 µM in assay [5] (Homo sapiens, CFPAC-1, CFPAC-1); 23.7 µM in assay [6] (Homo sapiens, 786-0, 786-O). In addition, the IC50 in assay [7] (Homo sapiens) came out at 10.7 µM; in assay [8] (Homo sapiens, SF-126, SF126), 11.4 µM; in assay [9] (Homo sapiens, NCI-H82, NCI-H82 transfected with empty virus vector without NNMT gene), 1.24 µM; in [10] (Homo sapiens, NCI-H82, NCI-H82 with NNMT gene inserted via viral vector (NNMT protein overexpressed)) it was 2.96 µM; in assay [11] (Homo sapiens, MDA-MB-453, read-out: IC50 (50% inhibiting concentration), inhibitory effect on cell line, MDA-MB-453), 2.47 µM.
